Experimental data published in patent US10226044B2, “Agricultural and horticultural composition and method for cultivating plant” (AJINOMOTO CO., INC., priority 2014, dated 2019).

Legend:
[1] = tested on: LOX, JAR1, PI and MYC2 genes; assay: Real-time PCR of jasmonic acid synthesis and response genes in leaves after foliar application; type: in vivo, cherry tomato (Suncherry Pure); conditions: 10 mM Ile, 3 hours after foliar application
Protocol: Three hours after the foliar application, leaves of the same part were collected, and RNA was isolated by using SV Total RNA Isolation System™ (Promega) according to the manual of the kit. […] Expression of the 13-lipoxygenase (LOX) gene locating in the upstream of the jasmonic acid biosynthesis pathway, and the gene for synthesis of JA-Ile from JA and Ile (JASMONATE RESISTANT 1 (JAR1)) were analyzed. The expression amounts of the genes are represented as relative expression amounts with respect to that of the actin gene. The results of real-time PCR analysis of the jasmonic acid responding genes, protease inhibitor (PI) and MYC2 genes, performed by using the aforementioned cDNAs as the template are shown in FIG. 13. By the sprinkling of Ile, expression of the PI and MYC2 genes were increased.

[2] = tested on: cherry tomato (Suncherry Pure); assay: Antioxidant capacity of tomato fruit extract (DPPH radical method); type: in vivo; conditions: 70% methanol extract of mature fruit; compared to tomatoes sprinkled with water (Con.) or Pro
Protocol: After the plants of four root clumps uniformly grew, and flower buds began to appear, water (Con.), 10 mM L-isoleucine aqueous solution (Ile), or 10 mM proline aqueous solution (Pro) was sprinkled on the whole plants once a week. The sprinkled volume was adjusted in accordance with the growth of the plants, and it was 15 to 30 mL per one root clump.

[3] = tested on: cherry tomato (Micro-Tom); assay: Sprinkling of Ile on cherry tomato (Micro-Tom): blooming, appearance, ripening and number of fruit; type: in vivo
Protocol: Three seeds of cherry tomato (Micro-Tom) were shown in compost contained in a slit pot (upper diameter 10.5 cm×height 8.8 cm), and cultivated in a biotron at a temperature of 23° C. with a light period of 14 hours (6:00 to 20:00) and dark period of 10 hours (20:00 to 6:00). As the compost, a mixture of Kumiai Nippi Engei Baido No. 1 (Nihon Hiryo) and vermiculite at a ratio of 3:1 (volume ratio) was used. After 3 weeks, one root clump was left, and the others were thinned out. From one month after the sowing to harvest, a 300-fold diluted solution of Hyponex liquid fertilizer (N:P:K=6:10:5, Hyponex Japan) was additionally applied as soil fertilizer by irrigation at a frequency of once a week in a volume of 100 mL per one root clump (pot). After the plants of five root clumps uniformly grew, and flower buds began to appear, water (Control, or Con) or 10 mM L-isoleucine aqueous solution (Ile) was sprinkled on the whole plants once a week. The sprinkled volume was 5 mL per one root clump. Then, the blooming, appearance of fruit, ripening of the fruit, and number of fruit produced were investigated for each root clump.

[4] = tested on: LOX, JAR1, PI and MYC2 genes; assay: Investigation of isoleucine concentration for sprinkling (II): gene expression; type: in vivo, tomato (Caddy); conditions: 50 mM Ile, 3 mL on leaf surfaces (0.01, 0.1, 50, 100 mM tested)
Protocol: Tomato plants (variety: Caddy, Tokita Seed) were cultivated in a biotron room in the same manner as described in Example 1. Three weeks after sowing, 3 mL of water, or a 0.01 mM, 0.1 mM, 50 mM, or 100 mM isoleucine aqueous solution (Ile) was sprinkled on leaf surfaces of each plant, sampling was performed from the second foliage leaves, and expression of LOX, JAR1, PI and MYC2 genes were analyzed in the same manner as described in Example

[5] = tested on: VR callus derived from European grape; assay: Anthocyanin content of grape calluses treated with amino acids; type: cell-based, Vitis vinifera L.
Protocol: A cell line (VR, management number RPC00003) derived from European grape (Vitis vinifera L.) and stored in the Institute of Physical and Chemical Research, BioResource Center was subcultured on the MS agar medium. The subcultured VR callus was transferred to the MS agar medium containing a 5 mM solution of a different amino acid, and cultured. For the positive control, abscisic acid (ABA), for which coloring-promoting effect is known, was used at 100 μM (Jeong et al., Plant Science, 167:247-252, 2004). On the 5th day after the transfer, the callus was lyophilized and ground, and anthocyanin was extracted from it by using a 1% HCl/MeOH solution. Absorbance of the extract was measured at 530 nm, and the content of anthocyanin was measured by using cyanidine 3-glucoside as a standard substance.
(2) In the same manner as described above, anthocyanin content of grape calluses treated with isoleucine and proline, respectively, were measured.

[6] = tested on: LOX, JAR1, PI and MYC2 genes; assay: Investigation of isoleucine concentration for sprinkling (I): gene expression; type: in vivo, cherry tomato (Suncherry Pure); conditions: 1 mM, 4 mM, 7 mM or 10 mM Ile, 20 mL per plant, sprinkled twice; leaves 3 hours after second sprinkling
Protocol: One week afterward, Ile was sprinkled again in the same manner, the leaves were collected 3 hours thereafter, and expression of the LOX, JAR1, PI and MYC2 genes were analyzed in the same manner as described in Example 5.

[7] = tested on: cherry tomato (Suncherry Pure); type: in vivo; conditions: 10 mM sprinkled once a week
Protocol: Three seeds of cherry tomato (Suncherry Pure, Tokita Seed) were shown in compost contained in a slit pot, and cultivated in the same manner as described in Example 1, provided that the cultivation was performed in a greenhouse as in Example 2. The compost and application of fertilizer were the same or performed in the same manner as those described in Example 1. One month after the sowing, each seedling was permanently planted in a 9.0-cm long pot (top diameter 9 cm, height 20 cm, bottom diameter 6.4 cm), and cultivated until harvest. As for application of fertilizer, a 200-fold diluted solution of Vegetable Life A (Otsuka Chemical) was additionally applied as a fertilizer by irrigation in a volume of 100 mL per one root clump (pot) every two days from one month after the sowing to the harvest. After the plants of four root clumps uniformly grew, and flower buds began to appear, water (Con.), 10 mM L-isoleucine aqueous solution (Ile), or 10 mM proline aqueous solution (Pro) was sprinkled on the whole plants once a week. The sprinkled volume was adjusted in accordance with the growth of the plants, and it was 15 to 30 mL per one root clump. Then, ripening of fruit, number of fruit, amino acid content of fruit juice, sugar content and acidity of fruit juice, and antioxidant capacity of fruit juice were investigated for each root clump.

[8] = tested on: bok choy; conditions: substitution for 20% of nitrate nitrogen in nutrient solution, hydroponics; cited from earlier work
[9] = relative to actin, compared to water (Con.)
[10] = 10 mM, once a week, compared to control

CC[C@H](C)[C@H](N)C(=O)O [Ile, L-isoleucine]
expression of the MYC2 gene [1]: increased | expression of the PI gene [1]: increased | Expression of the JAR1 gene in leaves [1, 9]: significantly higher | Expression of the LOX gene in leaves [1, 9]: significantly higher | antioxidant capacity (free radical-eliminating ability, DPPH) [2]: higher | Blooming and appearance of the fruit ([3]; 10 mM L-isoleucine sprinkled on whole plants once a week, 5 mL per root clump, compared to water (Con)): occurred sooner | Ripening of the tomatoes (fruit turned orange or red) [3, 10]: began earlier | number of colored tomatoes at the same time point [3, 10]: larger | numbers of blooms and fruit ([3]; 10 mM, once a week, compared to water (Con)): larger | number of harvested tomatoes, larger as compared to control ([3]; 10 mM, once a week, harvest on the 82nd day after sowing): 20% | Expression of the LOX, JAR1, PI and MYC2 genes [4]: promoted | anthocyanin content of callus, comparison of amino acids ([5]; 5 mM, 5th day): highest | change in color of the grape callus (anthocyanin content) ([5]; Ile of 1 mM or higher, Pro compared with Ile): promoted | Expression of the LOX, JAR1, PI and MYC2 genes [6]: increased substantially in an Ile concentration-dependent manner | final crop yield: number of fruit produced, larger as compared to water (Con.) [7]: 16% | number of tomatoes that had changed color [7]: larger in the order of the tomato plants sprinkled with Ile, Pro, and water (Con.) | growth (weight of root clump) [8]: not effective | nitrogen and phosphorus contents of terrestrial parts (shoots) [8]: increased
